Experimental data as given in patent US9295667B2, “Pharmaceutical composition for preventing or treating diabetes or fatty liver containing a CYP4A inhibitor as an active ingredient” (Korea Basic Science Institute, priority 2011, dated 2016).

Experiments:
db/db mice [1] = test: Intraperitoneal glucose tolerance test (IPGTT) in db/db mice; assay type: in vivo; settings: 5 mg/kg/day intraperitoneal, 2 weeks, 1 g/kg glucose
Description: (§1) Male C57BL/6J and C57BL/KsJ-db/db mice were purchased from Japan SLC. HET0016 (5 mg/kg/day) and clofibrate (400 mg/kg/day) were injected intraperitoneally into eight (8)-week-old mice for two (2) weeks. Control littermate mice for HET0016 were treated with DMSO, while control littermate mice for clofibrate were treated with corn oil. Intraperitoneal glucose tolerance test (IPGTT) was performed after overnight fasting followed by intraperitoneal injection of lg/kg of glucose dissolved in PBS. The concentrations of blood glucose were measured using a One Touch Ultra glucometer (LifeScan, Inc.) before (0 min) and at 15, 30, 60, 90 and 120 min. after glucose injection. Livers isolated from 10-week-old mice were fixed in 10% neutral buffered formalin solution (Sigma), and paraffin sections were stained with hematoxylin-eosin.

db/db mice [2] = test: Level of blood glucose following 6 hours' fasting in db/db mice; assay type: in vivo; settings: 5 mg/kg/day intraperitoneal, 2 weeks
Description: as §1, with “Intraperitoneal glucose tolerance test (IPGTT) was performed after overnight fasting followed by intraperitoneal injection of lg/kg of glucose dissolved in PBS.” left out

db/db mice [3] = test: Serum insulin ELISA in db/db mice; assay type: in vivo; settings: 5 mg/kg/day intraperitoneal, 2 weeks
Description: (§2) While the mice were sacrificed, their blood was obtained with their hearts being punctured. The concentration of serum insulin was determined by using a commercial mouse serum insulin ELISA kit (Shibayagi Co., Ltd.) according to the manufacturer's instructions. Lipid peroxidation was measured by using OxiSelect™ TBARS Assay Kit (Cell Biolabs, Inc.) to quantify malondialdehyde (MDA), a natural by-product of lipid peroxidation in the liver homogenates. The level of triglyceride in the mice livers was measured by using Triglyceride Quantification Kit (Abcam).

db/db mice [4] = test: Liver tissue sections, hematoxylin-eosin staining, db/db mice; assay type: in vivo; settings: 5 mg/kg/day intraperitoneal, 2 weeks
Description: as §1

db/db mice [5] = test: TBARS assay of MDA formation (lipid peroxidation) in liver of db/db mice; assay type: in vivo; settings: 5 mg/kg/day intraperitoneal, 2 weeks
Description: as §2

[6] = test system: ER stress markers (PERK, phospho-eIF2α, CHOP, phospho-JNK); test: Western blotting of ER stress markers in liver tissues of db/db mice; assay type: in vivo; settings: 5 mg/kg/day intraperitoneal, 2 weeks
Description: as §1
Liver microsomes were prepared from fresh mice livers by applying a slight modification to the above described methods. Separated livers were thoroughly sprinkled with 1.15% KCl solution. Subsequently, the livers were homogenized with 4 times volume of a homogenizing buffer (0.1 M Tris-HCl, pH 7.4; 0.1 M KCl; […], pH 7.5; 25 μM butylated hydroxyltoluene). In order to remove un-destructed cells, nuclei and mitochondria, the obtained homogenate was centrifuged in a low-powered centrifugation (1,000× g, 4° C. for 15 min.) The obtained supernatant was then centrifuged in a higher powered centrifugation (100,000× g, 4° C. for 60 min.), resulting in the precipitation of microsomes. Pellets of compactly packed microsomes were re-suspended in 3 ml of an ice-cooled pyrophosphate buffer (0.1 M potassium pyrophosphate; 1 mM EDTA, pH 7.5; 20 μM butylated hydroxyltoluene) by using a homogenizer, followed by further centrifugation at 100,000× g, 4° C. for 60 min. The washed microsome pellets were finally suspended in 2 ml of an ice-cooled microsome buffer (10 mM Tris-HCl, pH 7.4; 1 mM EDTA, pH 7.5; 20% glycerol).
(§3) Proteins were denatured at 95° C., and separated by SDS-PAGE, followed by electroblotting on a membrane made of nitrocellulose (NC) or polyvinylidene difluoride (PVDF). After blocking in TBST (Tris-buffered Saline, 0.1% Tween-20) containing 5% non-fat milk (skim milk) or 5% bovine serum albumin (BSA), the membrane was incubated with labeled primary antibodies. Subsequently, the membrane was washed with TBST and further incubated with secondary antibodies coupled with horseradish peroxides. Protein blots were detected by using ECL kit and visualized by a luminescence imaging analyzer of LAS-4000 mini system and software (FujiFilm). […]

[7] = test system: insulin receptor (IR) and Akt; test: In vivo insulin signaling (phosphorylation of IR and Akt) in liver of db/db mice; settings: 5 mg/kg/day intraperitoneal, 2 weeks
Description: as §1
as §3, with “Subsequently, the membrane was washed with TBST and further incubated with secondary antibodies coupled with horseradish peroxides.” left out

[8] = test system: cleaved Caspase-3 and -9, Bax and Bcl-2; test: Apoptosis markers by Western blotting in liver of db/db mice; assay type: in vivo; settings: 5 mg/kg/day intraperitoneal, 2 weeks
Description: as §1
(§4) Proteins were denatured at 95° C., and separated by SDS-PAGE, followed by electroblotting on a membrane made of nitrocellulose (NC) or polyvinylidene difluoride (PVDF). After blocking in TBST (Tris-buffered Saline, 0.1% Tween-20) containing 5% non-fat milk (skim milk) or 5% bovine serum albumin (BSA), the membrane was incubated with labeled primary antibodies. Subsequently, the membrane was washed with TBST and further incubated with secondary antibodies coupled with horseradish peroxides. Protein blots were detected by using ECL kit and visualized by a luminescence imaging analyzer of LAS-4000 mini system and software (FujiFilm). Following antibodies were utilized: mouse anti-β-actin (sc-47778), rabbit anti-CYP4A (sc-98988, Santa Cruz Biotechnology), mouse anti-ATF6 (IMG-273, Imgenex), mouse anti-eIF2α (ab5369), rabbit anti-phospho-eIF2α Ser51 (ab32157), rabbit anti-IRE1 (ab37073, Abcam), rabbit anti-PERK(#3192), rabbit anti-phospho-PERK Thr980 (#3179), rabbit anti-BiP (#3177), mouse anti-CHOP (#2895), rabbit anti-SAPK/JNK (#9252), rabbit anti-phospho-SAPK/JNK […] (#9251), rabbit anti-Insulin receptor β (#3025), rabbit anti-phospho-Insulin receptor β Tyr1150/1151 (#3024), rabbit anti-Akt (#4691), rabbit anti-phospho-Akt Ser473 (#4060), rabbit anti-Bcl-2 (#2876), rabbit anti-Bax (#2772), rabbit anti-divided caspase-3 (#9664), rabbit anti-divided caspase-9 (#9509), rabbit anti-Bax (#2772, Cell Signaling Technology), rabbit anti-ERP72 (obtained from Dr. O. Y. Kwon, College of Medicine, Chungnam National University).

[9] = test system: human hepatoma HepG2 cells; test: Tunicamycin-induced ER stress in HepG2 cells, Western blotting; assay type: cell-based; settings: 4 μg/ml tunicamycin, combined treatment HET0016, 6 hours
Description: HepG2 cells were cultured in a Dulbecco's Modified Eagle Medium (DMEM, Gibco) Low Glucose supplemented with heat-inactivated 10% fetal bovine serum (FBS) and antibiotics at 37° C. in the presence of 5% moisturized CO2 and 95% air. The above cells were plated in a concentration of 3×10^4 cells/cm^2 and maintained in the cell culture medium for 24 hours prior to the following chemical processing. […] As a control, HepG2 cells were treated with DMSO.
as §4

C57BL/6J mice [10] = test: IPGTT in normal C57BL/6J mice; assay type: in vivo; settings: normal wild type C57BL/6J mice, same doses as db/db mice (5 mg/kg/day intraperitoneal, 2 weeks)
Description: as §1

C57BL/6J mice [11] = test: Serum insulin ELISA in normal C57BL/6J mice; assay type: in vivo; settings: normal wild type C57BL/6J mice, 5 mg/kg/day intraperitoneal, 2 weeks
Description: as §2

C57BL/6J mice [12] = test: Liver tissue sections, hematoxylin-eosin staining, C57BL/6J mice; assay type: in vivo; settings: normal wild type C57BL/6J mice, 5 mg/kg/day intraperitoneal, 2 weeks
Description: as §1

C57BL/6J mice [13] = test: Liver triglyceride (TG) level in C57BL/6J mice; assay type: in vivo; settings: normal wild type C57BL/6J mice, 5 mg/kg/day intraperitoneal, 2 weeks
Description: as §2

insulin resistance (IPGTT) (C57BL/6J mice [10]): not altered
serum insulin level (C57BL/6J mice [11]): no differences
hepatic steatosis (level of TG) (C57BL/6J mice [13]): no differences
SMILES: CCCCc1ccc(N=CNO)c(C)c1 [HET0016, N-hydroxy-N′-(4-butyl-2-methylphenyl)-formamidine]
insulin resistance (IPGTT) (db/db mice [1]): significantly improved
level of blood glucose (db/db mice [2]): decreased
level of serum insulin (db/db mice [3]): notably reduced
severe hepatic steatosis (db/db mice [4]): relieved
increase of hepatic lipid peroxidation (MDA) (db/db mice [5]): notably reduced
activation of JNK [6]: markedly decreased
activity of PERK downstream signaling (phosphorylation status of eIF2α, expression level of CHOP) [6]: reduced
expression of Cyp4a [6]: not changed
expression of PERK [6]: reduced
phosphorylation of Akt [7]: increased
phosphorylation of insulin receptor (IR) [7]: increased
apoptosis of the diabetic liver tissues [8]: inhibited
expression of Bax [8]: suppressed
expression of Bcl-2 [8]: increased
level of active forms of caspase-3 and -9 [8]: reduced
expression of PERK [9]: remarkably down-regulate
expression of phospho-JNK [9]: remarkably down-regulate
expression of phospho-eIF2α [9]: remarkably down-regulate
hepatic physiology (liver sections) (C57BL/6J mice [12]): no differences
